# In the supplement of paper PMC10307832:
# Experiments:
# Test in all cases: relative viability (nuclei count vs DMSO), 5 days (fraction); higher = more cells survive
# [1] = compound: C1/C(=C\C2=CC=CS2)/C(=O)/C(=C/C3=CC=CS3)/C1 + Cc1nc(NC(=O)N2CCC[C@H]2C(N)=O)sc1-c1ccnc(C(C)(C)C(F)(F)F)c1 [Alpelisib] (partner 2 µM)
# Summary of the method: (§1)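 Dosing by pin tool came one day after lung cancer cell lines were seeded in 1536-well plates, using either one drug or a fixed anchor-drug dose plus five library-drug doses (not always all listed) in √10 steps. After 5 days, nuclei were counted on 4× images. Relative viability is treated-well nuclei count divided by vehicle-well nuclei count, and values are medians of duplicate plates.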
# Lestaurtinib + Lapatinib = compound: C[C@]12O[C@H](C[C@]1(O)CO)n1c3ccccc3c3c4c(c5c6ccccc6n2c5c31)CNC4=O [Lestaurtinib] + CS(=O)(=O)CCNCc1ccc(-c2ccc3ncnc(Nc4ccc(OCc5cccc(F)c5)c(Cl)c4)c3c2)o1 [Lapatinib] (partner 2 µM)
# Summary of the method: as §1
# TPCA-1 + Olaparib = compound: C1=CC(=CC=C1C2=CC(=C(S2)NC(=O)N)C(=O)N)F [TPCA-1] + O=C(c1cc(Cc2n[nH]c(=O)c3ccccc23)ccc1F)N1CCN(C(=O)C2CC2)CC1 [Olaparib] (partner 8 µM)
# Summary of the method: as §1
# TPCA-1 + Trametinib = compound: C1=CC(=CC=C1C2=CC(=C(S2)NC(=O)N)C(=O)N)F [TPCA-1] + CC(=O)Nc1cccc(-n2c(=O)n(C3CC3)c(=O)c3c(Nc4ccc(I)cc4F)n(C)c(=O)c(C)c32)c1 [Trametinib] (partner 0.02 µM)
# Summary of the method: as §1
Cell Line,relative viability ([1]; first compound 0.2 µM),relative viability ([1]; first compound 0.6325 µM),relative viability ([1]; first compound 2 µM),relative viability ([1]; first compound 6.325 µM),relative viability ([1]; first compound 20 µM),relative viability (Lestaurtinib + Lapatinib; first compound 0.005 µM),relative viability (Lestaurtinib + Lapatinib; first compound 0.01581 µM),relative viability (Lestaurtinib + Lapatinib; first compound 0.05 µM),relative viability (Lestaurtinib + Lapatinib; first compound 0.1581 µM),relative viability (Lestaurtinib + Lapatinib; first compound 0.5 µM),relative viability (TPCA-1 + Olaparib; first compound 0.04 µM),relative viability (TPCA-1 + Olaparib; first compound 0.1265 µM),relative viability (TPCA-1 + Olaparib; first compound 0.4 µM),relative viability (TPCA-1 + Olaparib; first compound 1.265 µM),relative viability (TPCA-1 + Olaparib; first compound 4 µM),relative viability (TPCA-1 + Trametinib; first compound 0.04 µM),relative viability (TPCA-1 + Trametinib; first compound 0.1265 µM),relative viability (TPCA-1 + Trametinib; first compound 0.4 µM),relative viability (TPCA-1 + Trametinib; first compound 1.265 µM),relative viability (TPCA-1 + Trametinib; first compound 4 µM)
Calu-6,0.971,1.08,1.04,0.849,1.01,1.09,1.2,0.557,0.499,0.208,0.671,0.57,0.553,0.539,0.511,–,–,–,–,–
ChaGo-K-1,–,–,–,–,–,–,–,–,–,–,0.434,0.321,0.445,0.374,0.221,0.895,0.715,0.876,0.822,0.676
EBC-1,0.852,0.923,0.947,0.786,0.845,0.164,0.236,0.251,0.234,0.185,0.759,0.606,0.784,0.727,0.715,–,–,–,–,–
EKVX,0.878,0.85,0.992,0.626,0.855,0.192,0.221,0.195,0.194,0.198,0.963,–,0.837,0.568,0.727,0.507,–,0.376,0.216,0.313
EMC-BAC-2,0.743,0.75,0.694,0.655,0.696,0.921,0.968,0.865,0.669,0.309,0.486,0.461,0.572,0.355,0.245,0.869,0.811,0.979,0.742,0.906
EPLC-272H,1.1,0.881,1.05,0.831,0.841,0.87,1.06,0.616,0.513,0.5,0.992,0.709,0.839,0.455,0.372,0.324,0.22,0.329,0.332,0.265
H3255,0.759,0.553,0.661,0.66,0.704,0.2,0.175,0.243,0.18,0.112,0.577,0.542,0.536,0.527,0.507,0.728,0.545,0.62,0.596,0.519
HARA,0.802,0.78,0.885,0.598,0.861,0.795,0.748,0.738,0.68,0.369,0.884,0.765,1.09,0.742,0.656,0.8,1.11,0.7,0.63,0.677
HCC-15,0.926,0.934,0.823,0.845,0.871,0.931,1.05,0.8,0.545,0.135,0.798,0.686,0.773,0.67,0.594,0.402,0.372,0.347,0.346,0.311
